# Laboratory results reported in PubChem BioAssay AID248 (DTP/NCI, 2004).
# Values joined by “and” are separate entries in the source; they are usually repeats but may differ in a detail not shown here. Equal values may be shown once. Toxic doses and inconclusive results are not listed.
# Test system: L1210 leukemia ip in BDF1 mice, survival T/C
# Experiment: NCI In Vivo Anticancer Drug Screen. Data for tumor model L1210 Leukemia (intraperitoneal) in B6D2F1 (BDF1) mice
# Conditions: higher = longer survival
# Outline: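 Survival endpoint. Drug-treated group vs vehicle group, expressed as T divided by C. Tumor passaged by transplantation.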
# [1] = endpoint: mean survival time, dose: 25.0 mg/kg/injection, schedule: Q01DX009 (ip), vehicle: saline
# [2] = endpoint: mean survival time, dose: 200.0 mg/kg/injection, schedule: Q01DX001 (ip), vehicle: saline
# [3] = endpoint: mean survival time, dose: 400.0 mg/kg/injection, schedule: Q01DX001 (ip), vehicle: saline
# [4] = endpoint: mean survival time, dose: 100.0 mg/kg/injection, schedule: Q04DX003 (ip), vehicle: Klucel (hydroxypropylcellulose) (HPC)
# [5] = endpoint: mean survival time, dose: 200.0 mg/kg/injection, schedule: Q04DX003 (ip), vehicle: Klucel (hydroxypropylcellulose) (HPC)
# [6] = endpoint: mean survival time, dose: 400.0 mg/kg/injection, schedule: Q04DX003 (ip), vehicle: Klucel (hydroxypropylcellulose) (HPC)
# [7] = endpoint: mean survival time, dose: 100.0 mg/kg/injection, schedule: Q01DX009 (ip), vehicle: Klucel (hydroxypropylcellulose) (HPC)
# [8] = endpoint: mean survival time, dose: 200.0 mg/kg/injection, schedule: Q01DX009 (ip), vehicle: Klucel (hydroxypropylcellulose) (HPC)
# [9] = endpoint: mean survival time, dose: 50.0 mg/kg/injection, schedule: Q01DX009 (ip), vehicle: Klucel (hydroxypropylcellulose) (HPC)
# [10] = endpoint: mean survival time, dose: 100.0 mg/kg/injection, schedule: Q01DX001 (ip), vehicle: saline
# [11] = endpoint: mean survival time, dose: 100.0 mg/kg/injection, schedule: Q04DX003 (ip), vehicle: saline with Tween-80
structure (smiles),measurement,setting,value
O=P1(NCCCl)OCCCN1CCCl (stereo unspecified),T/C,"endpoint: mean survival time, dose: 12.5 mg/kg/injection, schedule: Q01DX001 (ip), vehicle: saline",101 % of control
same,T/C,"endpoint: mean survival time, dose: 25.0 mg/kg/injection, schedule: Q01DX001 (ip), vehicle: saline",116 % of control and 117 % of control
same,T/C,[1],155 % of control
same,T/C,"endpoint: mean survival time, dose: 25.0 mg/kg/injection, schedule: Q07DX003 (ip), vehicle: saline",110 % of control
same,T/C,"endpoint: mean survival time, dose: 50.0 mg/kg/injection, schedule: Q01DX001 (ip), vehicle: saline",124 % of control
same,T/C,"endpoint: mean survival time, dose: 50.0 mg/kg/injection, schedule: Q01DX009 (ip), vehicle: saline",160 % of control
same,T/C,"endpoint: mean survival time, dose: 50.0 mg/kg/injection, schedule: Q01DX009 (ip), vehicle: water",173 % of control
same,T/C,"endpoint: mean survival time, dose: 75.0 mg/kg/injection, schedule: Q07DX003 (ip), vehicle: saline",166 % of control
same,T/C,"endpoint: mean survival time, dose: 100.0 mg/kg/injection, schedule: Q01DX009 (ip), vehicle: saline",260 % of control
same,T/C,"endpoint: mean survival time, dose: 100.0 mg/kg/injection, schedule: Q01DX009 (ip), vehicle: water",185 % of control
same,T/C,"endpoint: mean survival time, dose: 100.0 mg/kg/injection, schedule: Q07DX003 (ip), vehicle: saline",216 % of control
same,T/C,"endpoint: mean survival time, dose: 125.0 mg/kg/injection, schedule: Q07DX003 (ip), vehicle: saline",206 % of control
same,T/C,"endpoint: mean survival time, dose: 150.0 mg/kg/injection, schedule: Q01DX001 (ip), vehicle: saline",249 % of control
same,T/C,[2],191 % of control and 221 % of control and 298 % of control
same,T/C,"endpoint: mean survival time, dose: 200.0 mg/kg/injection, schedule: Q01DX009 (ip), vehicle: saline",167 % of control
same,T/C,[3],198 % of control
same,T/C,"endpoint: mean survival time, dose: 800.0 mg/kg/injection, schedule: Q01DX001 (ip), vehicle: saline",206 % of control
same,T/C,"endpoint: median survival time, dose: 65.0 mg/kg/injection, schedule: Q01DX014 (ip), vehicle: water",215 % of control and 216 % of control
same,T/C,"endpoint: median survival time, dose: 108.0 mg/kg/injection, schedule: Q01DX001 (ip), vehicle: water",118 % of control and 121 % of control
same,T/C,"endpoint: median survival time, dose: 180.0 mg/kg/injection, schedule: Q01DX001 (ip), vehicle: saline",172 % of control and 175 % of control
same,T/C,"endpoint: median survival time, dose: 180.0 mg/kg/injection, schedule: Q01DX009 (ip), vehicle: water",291 % of control
same,T/C,"endpoint: median survival time, dose: 180.0 mg/kg/injection, schedule: Q01DX014 (ip), vehicle: water",105 % of control
same,T/C,"endpoint: median survival time, dose: 180.0 mg/kg/injection, schedule: Q07DX003 (ip), vehicle: water",289 % of control
same,T/C,"endpoint: median survival time, dose: 300.0 mg/kg/injection, schedule: Q01DX001 (ip), vehicle: saline",261 % of control and 266 % of control
same,T/C,"endpoint: median survival time, dose: 300.0 mg/kg/injection, schedule: Q01DX009 (ip), vehicle: water",187 % of control
same,T/C,"endpoint: median survival time, dose: 300.0 mg/kg/injection, schedule: Q01DX014 (ip), vehicle: water",76 % of control
same,T/C,"endpoint: median survival time, dose: 300.0 mg/kg/injection, schedule: Q07DX003 (ip), vehicle: water",168 % of control
same,T/C,"endpoint: median survival time, dose: 400.0 mg/kg/injection, schedule: Q01DX001 (ip), vehicle: water",272 % of control and 297 % of control
same,T/C,"endpoint: median survival time, dose: 500.0 mg/kg/injection, schedule: Q01DX001 (ip), vehicle: saline",44 % of control
same,T/C,"endpoint: median survival time, dose: 500.0 mg/kg/injection, schedule: Q01DX009 (ip), vehicle: water",81 % of control
same,T/C,"endpoint: median survival time, dose: 600.0 mg/kg/injection, schedule: Q01DX001 (ip), vehicle: water",227 % of control and 255 % of control
same,T/C,"endpoint: median survival time, dose: 700.0 mg/kg/injection, schedule: Q01DX001 (ip), vehicle: water",46 % of control
same,T/C,"endpoint: median survival time, dose: 800.0 mg/kg/injection, schedule: Q01DX001 (ip), vehicle: water",39 % of control
same,T/C,"endpoint: median survival time, dose: 833.0 mg/kg/injection, schedule: Q01DX001 (ip), vehicle: saline",23 % of control
same,T/C,"endpoint: median survival time, dose: 833.0 mg/kg/injection, schedule: Q01DX009 (ip), vehicle: water",24 % of control
same,T/C,"endpoint: median survival time, dose: 900.0 mg/kg/injection, schedule: Q01DX001 (ip), vehicle: water",25 % of control
CC(=O)C(CCS(C)(=O)=O)c1ccccc1 (stereo unspecified),T/C,[4],103 % of control
same,T/C,[5],97 % of control
same,T/C,[6],105 % of control
COc1ccc(OC(=O)Nc2ccc(Cl)cc2OC)cc1,T/C,[7],92 % of control
same,T/C,[8],95 % of control
COc1ccc(S(=O)(=O)NC(=O)NC23CC4CC(CC(C4)C2)C3)cc1,T/C,[9],91 % of control
same,T/C,[7],98 % of control
same,T/C,[4],97 % of control
same,T/C,[5],97 % of control
same,T/C,[6],94 % of control
O=C(CCl)N1CCC(C(O)c2cc3ccccc3n2S(=O)(=O)c2ccccc2)CC1 (stereo unspecified),T/C,"endpoint: mean survival time, dose: 100.0 mg/kg/injection, schedule: Q04DX002 (ip), vehicle: saline with Tween-80",94 % of control
same,T/C,"endpoint: mean survival time, dose: 200.0 mg/kg/injection, schedule: Q04DX002 (ip), vehicle: saline with Tween-80",94 % of control
same,T/C,"endpoint: mean survival time, dose: 400.0 mg/kg/injection, schedule: Q04DX002 (ip), vehicle: saline with Tween-80",97 % of control
CC(C)c1ccc(NC(=O)c2ccc(Cl)c(Cl)c2)cc1,T/C,[7],98 % of control
same,T/C,[8],91 % of control
same,T/C,"endpoint: mean survival time, dose: 400.0 mg/kg/injection, schedule: Q01DX009 (ip), vehicle: Klucel (hydroxypropylcellulose) (HPC)",93 % of control
Cc1cccc(NCC(=O)NN)c1,T/C,"endpoint: mean survival time, dose: 100.0 mg/kg/injection, schedule: Q04DX002 (ip), vehicle: Klucel (hydroxypropylcellulose) (HPC)",100 % of control
same,T/C,"endpoint: mean survival time, dose: 200.0 mg/kg/injection, schedule: Q04DX002 (ip), vehicle: Klucel (hydroxypropylcellulose) (HPC)",115 % of control
CN(C)P1(=O)NCCCO1 (stereo unspecified),T/C,[10],100 % of control
same,T/C,[2],110 % of control
same,T/C,[3],109 % of control
N/C(=N/O)c1cn(C2OC(CO)C(O)C2O)c2ncnc(NO)c12 (stereo unspecified),T/C,"endpoint: mean survival time, dose: 12.5 mg/kg/injection, schedule: Q01DX009 (ip), vehicle: saline",121 % of control
same,T/C,[1],86 % of control
COC(=O)Cc1ccccc1C(=O)OC,T/C,[11],107 % of control
same,T/C,"endpoint: mean survival time, dose: 200.0 mg/kg/injection, schedule: Q04DX003 (ip), vehicle: saline with Tween-80",96 % of control
same,T/C,"endpoint: mean survival time, dose: 400.0 mg/kg/injection, schedule: Q04DX003 (ip), vehicle: saline with Tween-80",100 % of control
COc1cccc2c1C(=O)CC2,T/C,"endpoint: mean survival time, dose: 25.0 mg/kg/injection, schedule: Q01DX009 (ip), vehicle: acetone",101 % of control
same,T/C,"endpoint: mean survival time, dose: 50.0 mg/kg/injection, schedule: Q01DX009 (ip), vehicle: acetone",106 % of control
same,T/C,"endpoint: mean survival time, dose: 100.0 mg/kg/injection, schedule: Q01DX009 (ip), vehicle: acetone",103 % of control
same,T/C,[11],87 % of control
O=C(O)c1cc2cc(Cl)ccc2oc1=O,T/C,"endpoint: mean survival time, dose: 100.0 mg/kg/injection, schedule: Q01DX001 (ip), vehicle: carboxymethylcellulose (CMC)",92 % of control
same,T/C,"endpoint: mean survival time, dose: 200.0 mg/kg/injection, schedule: Q01DX001 (ip), vehicle: carboxymethylcellulose (CMC)",92 % of control
COc1ccc2c(c1)C(C)(C)N(C)CC2,T/C,"endpoint: mean survival time, dose: 100.0 mg/kg/injection, schedule: Q04DX003 (ip), vehicle: acetone",104 % of control
CCOC(=O)C1=C(C)NC(=O)NC1c1ccc(N(CCCl)CCCl)cc1Cl (stereo unspecified),T/C,"endpoint: mean survival time, dose: 25.0 mg/kg/injection, schedule: Q01DX009 (ip), vehicle: Klucel (hydroxypropylcellulose) (HPC)",102 % of control
same,T/C,[9],98 % of control
same,T/C,[7],111 % of control
O=[N+]([O-])c1ccc(-c2cnc(Nc3ccc(Cc4ccc(Nc5ncc(-c6ccc([N+](=O)[O-])cc6)s5)c(Cl)c4)cc3Cl)s2)cc1,T/C,[4],98 % of control
same,T/C,[5],106 % of control
same,T/C,[6],98 % of control
NNc1ccc(CC(=O)O)cc1,T/C,[10],98 % of control
same,T/C,[2],93 % of control
same,T/C,[3],98 % of control
Cc1cc(=O)[nH]c(N/N=C/c2ccco2)n1,T/C,[9],96 % of control
same,T/C,[7],96 % of control
same,T/C,[4],87 % of control
same,T/C,[8],95 % of control
same,T/C,[5],90 % of control
O=S(=O)(Cl)OC1C2COC(O2)C(OS(=O)(=O)Cl)C1OS(=O)(=O)Cl (stereo unspecified),T/C,"endpoint: mean survival time, dose: 12.5 mg/kg/injection, schedule: Q04DX003 (ip), vehicle: saline with Tween-80",102 % of control
same,T/C,"endpoint: mean survival time, dose: 25.0 mg/kg/injection, schedule: Q04DX003 (ip), vehicle: saline with Tween-80",92 % of control
same,T/C,"endpoint: mean survival time, dose: 50.0 mg/kg/injection, schedule: Q04DX003 (ip), vehicle: saline with Tween-80",96 % of control
